Laboratory results as given in US8124051B2, “Complex drug delivery composition and method for treating cancer” (priority 2003, dated 2012).

What was measured:
[1] = system: human ovarian carcinoma cells; test: Cytotoxicity (IC50 dose) of Ant, Ant-BH3 peptide and DOX; type: cell-based; conditions: Ovarian carcinoma cell; human ovarian carcinoma cells
Method: By way of example, the effectiveness of a BH3 peptide ([…] SEQ ID NO:1) to increase cell death by inducing the mitochondrial dysfunction leading to necrosis was measured. BH3 peptide was delivered into human ovarian carcinoma cells by the Antennapedia (Ant) internalization sequence (Arg-Gln-Ile-lys-[…] SEQ ID NO:2). Mitochondrial function was assessed by flow cytometry analysis using the lipophilic cationic fluorescent probe 5,5′,6,6′-tetrachloro-1,1′,3,3′-tetraethylbenzimidazolcarbo-cyanine iodide (JC-1). This probe exists as a monomer, and upon excitation at 490 nm, emits light at 527 nm resulting in green fluorescence. At high mitochondrial transmembrane potential, JC-1 forms multimers, known as J-aggregates, and emits light at 590 nm upon excitation at 490 nm resulting in red fluorescence. Therefore, the red/green fluorescence ratio measured by flow cytometry reflects the number of functioning mitochondria. […] The effect of the Ant-BH3 peptide on mitochondrial transmembrane potential was also determined.
Cytotoxicity. The cytotoxicity of drugs were assessed using a modified MTT (3-(4,5-dimethylthiazol-2-yl)-2,5-diphenyltetrazolium bromide) assay (Kunath, et al. (2000) Eur. J. Pharm. Biopharm 49:11-15; Minko, et al. (1998) J. Controlled Rel. 54:223-233; Minko, et al. (1999) J. Controlled Rel. 59:133-148; Minko, et al. (2002) Cancer Chemother. Pharmacol. 50:143-150). […]

[2] = system: human ovarian carcinoma cells; test: Apoptosis and BCL-2 expression after DOX (cell death ELISA, RT-PCR); type: cell-based
From the text: (§1) It has been shown that prolonged exposure or high concentrations of anticancer drugs leads to the development of drug resistance (Minko, et al. (2001) Dis. Manag. Clin. Outcomes 3:48-54; Minko, et al. (1999) J. Controlled Rel. 59:133-148; Pakunlu (2003) Pharm. Res. 20:351-359; Minko, et al. (1999) Pharm. Res. 16:986-996; Minko, et al. (2001) J. Control. Rel. 71:227-237). To analyze antiapoptotic resistance, the degree of apoptosis to doxorubicin (DOX), a traditional, well-established anticancer drug, was determined. The enrichment of cell lysate and media by mono- and oligonucleosomes was measured using a cell death detection ELISA kit. The expression of genes was measured by reverse transcription PCR (RT-PCR) using β2-microglobulin (β2-m) as an internal standard. […] Similar results were obtained after repeated incubation of human ovarian carcinoma cells with low doses of DOX (Minko, et al. (1999) supra; Minko, et al. (1999) supra) and after treatment of mice xenografts of ovarian carcinoma cells with DOX. […] Thus, suppression of this antiapoptotic cellular defense mechanism is desirable.

[3] = system: xenografts of ovarian carcinoma cells; test: DOX treatment of mice xenografts of ovarian carcinoma cells; type: in vivo; conditions: up to 25 days of treatment
From the text: as §1

[4] = healthy tissues and tumor; cited from earlier work

With COc1cccc2c1C(=O)c1c(O)c3c(c(O)c1C2=O)C[C@@](O)(C(=O)CO)C[C@@H]3O[C@H]1C[C@H](N)[C@H](O)[C@H](C)O1 [DOX, doxorubicin] the IC50 [1] was 484 ± 36.4 nM, the cell response ([2]; cells that survived exposure to high DOX concentrations) was “overexpressed the BCL-2 gene and developed resistance to apoptosis” and the cell response ([2]; low DOX concentrations) was “responded to the treatment by apoptosis”. The tumor size [3] was “decreased the tumor size” and the tissue accumulation [4] was “significant amount of free DOX accumulation in healthy tissues”.
